# Patent US8569267B2, “Tetracyclic tetrahydrofuran derivatives containing cyclic amine side chain” (Janssen Pharmaceutica, NV, priority 2005, dated 2013)
# Assays:
# [1] = target: T1, NET (norepinephrine transporter) (Rattus norvegicus, UniProt Q63380); test: In vitro determination of NET reuptake inhibition ([3H]Nixosetine binding, rat brain cortex); settings: rat brain cortex; for IC50: read-out: NET pIC50 (converted)
# T1 construct: Cortex from rat brain was collected and homogenised; from tissue; host or cells: rat brain cortex
# T1 sequence (Q63380 1-617): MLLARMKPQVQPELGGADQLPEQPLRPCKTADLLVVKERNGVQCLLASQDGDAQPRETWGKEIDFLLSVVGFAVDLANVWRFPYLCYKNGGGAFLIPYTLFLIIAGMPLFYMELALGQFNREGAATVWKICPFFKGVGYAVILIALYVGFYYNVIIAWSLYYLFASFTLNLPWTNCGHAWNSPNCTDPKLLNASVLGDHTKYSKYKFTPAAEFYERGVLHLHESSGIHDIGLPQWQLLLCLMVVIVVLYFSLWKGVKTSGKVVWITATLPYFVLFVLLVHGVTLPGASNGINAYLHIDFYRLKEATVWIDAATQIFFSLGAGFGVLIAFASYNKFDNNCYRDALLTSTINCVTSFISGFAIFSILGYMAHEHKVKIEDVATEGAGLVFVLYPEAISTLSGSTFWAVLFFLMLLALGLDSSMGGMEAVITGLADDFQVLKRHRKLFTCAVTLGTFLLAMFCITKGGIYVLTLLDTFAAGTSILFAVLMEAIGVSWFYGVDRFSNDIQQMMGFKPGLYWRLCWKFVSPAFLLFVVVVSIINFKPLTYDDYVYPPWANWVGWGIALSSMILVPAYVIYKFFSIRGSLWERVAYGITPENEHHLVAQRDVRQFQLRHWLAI
# Procedure, shortened: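 Rat cortex homogenised in Tris 50 mM, NaCl 120 mM, KCl 5 mM, pH 7.4 was used for competition binding against [3H]nisoxetine. Bound radioligand was collected by filtration on GF/B filters and counted by scintillation. Percentage specific binding and competition curves were derived.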
# [2] = target: T2, human cloned 5-HT2A receptor, expressed in L929 cells (Homo sapiens, UniProt P28223); test: In vitro binding affinity for 5-HT2A receptor ([125I]R91150 radioligand binding); settings: human cloned 5-HT2A receptor in L929 cells, [125I]R91150; for IC50: read-out: 5-HT2A pIC50 (converted)
# T2 construct: expressed in transfected cells; host or cells: L929 cells
# T2 sequence (P28223 whole entry): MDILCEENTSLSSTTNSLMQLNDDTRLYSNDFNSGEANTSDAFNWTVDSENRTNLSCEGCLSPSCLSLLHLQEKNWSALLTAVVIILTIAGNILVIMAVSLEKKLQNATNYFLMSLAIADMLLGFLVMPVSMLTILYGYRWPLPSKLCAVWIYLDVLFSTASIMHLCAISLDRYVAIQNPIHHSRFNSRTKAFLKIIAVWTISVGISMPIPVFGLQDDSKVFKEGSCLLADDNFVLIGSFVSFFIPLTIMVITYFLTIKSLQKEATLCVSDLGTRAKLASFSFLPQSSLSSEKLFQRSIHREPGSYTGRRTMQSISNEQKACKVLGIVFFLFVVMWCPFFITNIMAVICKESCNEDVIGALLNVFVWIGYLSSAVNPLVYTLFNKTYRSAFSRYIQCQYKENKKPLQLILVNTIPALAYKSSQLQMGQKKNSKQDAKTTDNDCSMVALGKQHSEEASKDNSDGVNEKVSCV
# Procedure: In Vitro Binding Affinity for 5-HT2A and 5-HT2C Receptors
# The interaction of the compounds of Formula (I) with 5-HT2A and 5-HT2C receptors was assessed in in vitro radioligand binding experiments. […] During the incubation, the radioligands bind to the receptor. When equilibrium of binding is reached, the receptor bound radioactivity is separated from the non-bound radioactivity, and the receptor bound activity is counted. The interaction of the test compounds with the receptors is assessed in competition binding experiments. Various concentrations of the test compound are added to the incubation mixture containing the tissue preparation and the radioligand. Binding of the radioligand will be inhibited by the test compound in proportion to its binding affinity and its concentration. The affinities of the compounds for the 5-HT2 receptors were measured by means of radioligand binding studies conducted with: (a) human cloned 5-HT2A receptor, expressed in L929 cells using [^125I]R91150 as radioligand and (b) human cloned 5-HT2C receptor, expressed in CHO cells using [^3H]mesulergine as radioligand.
# [3] = target: T3, human Dopamine D2L receptor (Homo sapiens, UniProt P14416); test: In vitro binding affinity for human D2L receptor ([3H]Spiperone binding); settings: human D2L receptor-transfected CHO cell membranes; for IC50: read-out: D2L pIC50 (converted)
# T3 construct: expressed in transfected cells; host or cells: CHO cells
# T3 sequence (P14416 whole entry): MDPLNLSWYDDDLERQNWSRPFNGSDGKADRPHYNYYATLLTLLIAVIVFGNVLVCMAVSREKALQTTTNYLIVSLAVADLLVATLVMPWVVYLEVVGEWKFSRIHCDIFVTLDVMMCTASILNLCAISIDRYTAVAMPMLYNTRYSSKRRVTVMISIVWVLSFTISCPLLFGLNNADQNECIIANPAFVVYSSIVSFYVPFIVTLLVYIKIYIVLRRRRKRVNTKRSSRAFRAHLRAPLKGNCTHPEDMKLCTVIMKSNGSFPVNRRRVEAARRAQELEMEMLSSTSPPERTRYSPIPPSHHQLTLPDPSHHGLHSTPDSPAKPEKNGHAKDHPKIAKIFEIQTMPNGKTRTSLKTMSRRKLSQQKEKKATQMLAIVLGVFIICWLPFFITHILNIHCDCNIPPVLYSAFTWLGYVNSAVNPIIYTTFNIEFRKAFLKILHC
# Procedure, shortened: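 Membranes from CHO cells transfected with the receptor were incubated with [3H]Spiperone (diluted to 2 nmol/L before addition) and compound for 30 min at 37° C. Buffer was Tris-HCl, pH 7.7, with NaCl, CaCl2, MgCl2 and KCl, and non-specific binding was defined with 10^−6 mol/l Butaclamol. Bound radioactivity was collected by filtration, counted by scintillation, and competition curves calculated as percent specific binding.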
# [4] = target: T4, human cloned 5-HT2C receptor, expressed in CHO cells (Homo sapiens, UniProt P28335); test: In vitro binding affinity for 5-HT2C receptor ([3H]mesulergine radioligand binding); settings: human cloned 5-HT2C receptor; for IC50: read-out: 5-HT2C pIC50 (converted)
# T4 construct: expressed in transfected cells; host or cells: CHO cells
# T4 sequence (P28335 33-458): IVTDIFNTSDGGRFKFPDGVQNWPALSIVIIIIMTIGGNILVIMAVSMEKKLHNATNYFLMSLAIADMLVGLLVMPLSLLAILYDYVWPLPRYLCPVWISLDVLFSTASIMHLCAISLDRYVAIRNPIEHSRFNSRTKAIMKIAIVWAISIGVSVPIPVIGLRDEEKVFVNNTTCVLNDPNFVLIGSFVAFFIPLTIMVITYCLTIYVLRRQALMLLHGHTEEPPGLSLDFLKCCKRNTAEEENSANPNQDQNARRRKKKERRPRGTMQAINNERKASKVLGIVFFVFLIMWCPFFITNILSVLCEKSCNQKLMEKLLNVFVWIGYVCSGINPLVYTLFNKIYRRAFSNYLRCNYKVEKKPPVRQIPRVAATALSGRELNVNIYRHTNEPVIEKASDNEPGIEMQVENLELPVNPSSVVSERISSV
# Procedure, shortened: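 Competition radioligand binding: varying test-compound concentrations incubated with receptor preparation and radioligand to binding equilibrium. Bound radioactivity separated from free and counted; affinity inferred from concentration-dependent inhibition of radioligand binding.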
Structure (SMILES),IC50 [1] [nM],IC50 [2] [nM],IC50 [3] [nM],IC50 [4] [nM],NET pIC50 [1],5-HT2A pIC50 [2],D2L pIC50 [3],5-HT2C pIC50 [4]
CCOC(=O)C1CCCCN1C(=O)C1CCN(CC2CC3c4ccccc4Cc4ccc(F)cc4C3O2)CC1 (mixture of isomers) [Compound 205],8510,< 10,12.6,4.47,,,,
CC1CN(CC2CC3c4ccccc4Cc4ccc(F)cc4C3O2)C(C)CN1.O=C(O)C(=O)O (mixture of isomers) [Compound 280],,,,,<5,6.53,5.40,6.53
OC1CCN(CC2CC3c4ccccc4Sc4ccc(F)cc4C3O2)C1 (racemic) [Compound 44],282,< 10,10,9.33,,,,
CN1c2ccccc2C2CC(CN3CCC(O)C3)OC2c2ccccc21 (racemic) [Compound 263],2880,251,550,13.2,,,,
N#CC1CCCN(C[C@H]2C[C@@H]3c4ccccc4Cc4ccc(F)cc4[C@@H]3O2)CC1.O=C(O)C(=O)O.O=C(O)C(=O)O (mixture of isomers) [Compound 268],,,,,<5,8.52,7.92,8.24
O=C(O)C(=O)O.OC1CCN(CC2CC3c4ccccc4Oc4ccc(F)cc4C3O2)CC1 (racemic) [Compound 282],,,,,<5,7.00,6.10,6.93
COc1ccc2c(c1)C1OC(CN3CCC(O)CC3)CC1c1ccccc1O2.O=C(O)C(=O)O (racemic) [Compound 287],,,,,<5,7.62,6.17,6.54
COc1ccc2c(c1)C1OC(CN3CCC(O)CC3)CC1c1ccccc1O2.O=C(O)C(=O)O (racemic) [Compound 288],,,,,<5,7.18,6.08,6.71
OC1CCN(C[C@@H]2C[C@@H]3c4ccccc4Sc4ccc(F)cc4[C@H]3O2)C1 (relative stereo) [Compound 43],1700,< 10,57.5,1.29,,,,
N#Cc1ccc2c(c1)[C@H]1C[C@@H](CN3CCC(O)C3)O[C@H]1c1cc(F)ccc1S2 (relative stereo) [Compound 260],912,2.24,24.5,3.09,,,,
CN1c2ccccc2[C@H]2C[C@@H](CN3CCC(O)C3)O[C@@H]2c2ccccc21 (relative stereo) [Compound 264],4170,166,2240,19.1,,,,
"COC(=O)C1CCN(C[C@H]2C[C@@H]3c4ccccc4Cc4ccc(F)cc4[C@@H]3O2)C1 (single isomer, unassigned) [Compound 11, [2R-(2α, 3aα, 12bβ)]-(3′RS) 1-(11-fluoro-3,3a,8,12b-tetrahydro-2H-1-oxa-dibenzo[e,h]azulen-2-ylmethyl)-pyrrolidine-3-carboxylic acid methyl ester.oxalate (1:1)]",8320,2.04,9.77,0.708,,,,
"O=C(O)C(=O)O.OCC1CCCN(C[C@H]2C[C@@H]3c4ccccc4Cc4ccc(F)cc4[C@@H]3O2)C1 (single isomer, unassigned) [Compound 148]",,,,,<5,8.87,8.35,8.71
"O=C(O)C(=O)O.OCC1CCCN(C[C@H]2C[C@@H]3c4ccccc4Cc4ccc(F)cc4[C@@H]3O2)C1 (single isomer, unassigned) [Compound 149]",,,,,<5.52,9.08,8.61,9.10
COC1CCN(C[C@H]2C[C@@H]3c4ccccc4Cc4ccc(F)cc4[C@@H]3O2)C1 (stereo partly shown) [Compound 4],5890,< 10,16.2,2.09,,,,
OCC1CCN(C[C@H]2C[C@@H]3c4ccccc4Cc4ccc(F)cc4[C@@H]3O2)C1 (stereo partly shown) [Compound 5],4070,< 10,8.51,0.204,,,,
COC(=O)C1CCN(C[C@H]2C[C@@H]3c4ccccc4Cc4ccc(F)cc4[C@@H]3O2)C1 (stereo partly shown) [Compound 12],759,1.17,6.31,2.04,,,,
COc1ccc(OCC2CCN(C[C@H]3C[C@@H]4c5ccccc5Cc5ccc(F)cc5[C@@H]4O3)C2)cc1 (stereo partly shown) [Compound 25],2190,1.58,6.03,4.68,,,,

# More lines, main results first:
IC50 [1] [nM],IC50 [2] [nM],IC50 [3] [nM],IC50 [4] [nM],Structure (SMILES),NET pIC50 [1],5-HT2A pIC50 [2],D2L pIC50 [3],5-HT2C pIC50 [4]
> 10000,23.4,355,33.1,CCOC(=O)C1CCCCN1CC1CC2c3ccccc3Cc3ccc(F)cc3C2O1 (mixture of isomers) [Compound 158],,,,
1620,3.16,13.8,2.88,N#CCCC1CCCN(CC2CC3c4ccccc4Cc4ccc(F)cc4C3O2)C1 (mixture of isomers) [Compound 169],,,,
3890,1.41,25.1,5.75,COC(=O)C(Cc1ccc(Cl)cc1)NC(=O)C1CCN(CC2CC3c4ccccc4Cc4ccc(F)cc4C3O2)CC1 (mixture of isomers) [Compound 184],,,,
479,0.692,7.41,0.372,"OC1CCN(C[C@H]2C[C@@H]3c4ccccc4Cc4ccc(F)cc4[C@@H]3O2)C1 (stereo partly drawn) [Compound 1, [2R-(2α, 3aα, 12bβ)]-(3′RS) 1-(11-fluoro-3,3a,8,12b-tetrahydro-2H-1-oxa-dibenzo[e,h]azulen-2-ylmethyl)-pyrrolidin-3-ol.oxalate (1:1)]",,,,
1620,< 10,141,2.95,"O=C1CCN(C[C@H]2C[C@@H]3c4ccccc4Cc4ccc(F)cc4[C@@H]3O2)C1 [Compound 7, [2R-(2α, 3aα, 12bβ)]1-(11-fluoro-3,3a,8,12b-tetrahydro-2H-1-oxa-dibenzo[e,h]-azulen-2-ylmethyl)-pyrrolidin-3-one]",,,,
> 10000,17.4,437,13.5,O=C(O)C1CCN(C[C@H]2C[C@@H]3c4ccccc4Cc4ccc(F)cc4[C@@H]3O2)C1 (stereo partly shown) [Compound 10],,,,
3800,2.95,5.62,3.8,O=C(Nc1ccc(F)cc1)OCC1CCN(CC2CC3c4ccccc4Cc4ccc(F)cc4C3O2)C1 (stereo not shown) [Compound 23],,,,
> 10000,5.13,3.63,5.62,Fc1ccc(OCC2CCN(CC3CC4c5ccccc5Cc5ccc(F)cc5C4O3)C2)cc1 (stereo not shown) [Compound 26],,,,
5010,8.71,3.89,4.27,Fc1cccc(OCC2CCN(CC3CC4c5ccccc5Cc5ccc(F)cc5C4O3)C2)c1 (stereo not shown) [Compound 27],,,,
> 10000,18.6,7.59,1.78,Cc1ccc(OC2CCN(CC3CC4c5ccccc5Cc5ccc(F)cc5C4O3)C2)cc1 (stereo not shown) [Compound 28],,,,
> 10000,10.5,16.2,5.75,COC(=O)c1ccc(OC2CCN(CC3CC4c5ccccc5Cc5ccc(F)cc5C4O3)C2)cc1 (stereo not shown) [Compound 30],,,,
1950,0.631,3.09,0.513,CC1(O)CCN(C[C@H]2C[C@@H]3c4ccccc4Cc4ccc(F)cc4[C@@H]3O2)C1 (stereo partly shown) [Compound 39],,,,
> 10000,1.23,4.47,0.275,C=CC1(O)CCN(CC2CC3c4ccccc4Cc4ccc(F)cc4C3O2)C1 (stereo not shown) [Compound 40],,,,
